# Data as given in US10774122B2, “ERG targeted therapy” (The Regents of the University of Michigan, priority 2017, dated 2020).
# Like-named read-outs stand apart in the source and are kept apart here. Where a SMILES comes first, the peptide text is derived from it. Where no end group is shown, it is not given here. [ ]: non-standard residue; d: D form.
# Tests used:
# ERG [1] = target: T1, ERG (Homo sapiens, UniProt P11308); assay: ERG:peptide binding by biolayer interferometry (OctetRED); conditions: for binding to ERG: OctetRED, result in words
# T1 sequence (P11308 1-479): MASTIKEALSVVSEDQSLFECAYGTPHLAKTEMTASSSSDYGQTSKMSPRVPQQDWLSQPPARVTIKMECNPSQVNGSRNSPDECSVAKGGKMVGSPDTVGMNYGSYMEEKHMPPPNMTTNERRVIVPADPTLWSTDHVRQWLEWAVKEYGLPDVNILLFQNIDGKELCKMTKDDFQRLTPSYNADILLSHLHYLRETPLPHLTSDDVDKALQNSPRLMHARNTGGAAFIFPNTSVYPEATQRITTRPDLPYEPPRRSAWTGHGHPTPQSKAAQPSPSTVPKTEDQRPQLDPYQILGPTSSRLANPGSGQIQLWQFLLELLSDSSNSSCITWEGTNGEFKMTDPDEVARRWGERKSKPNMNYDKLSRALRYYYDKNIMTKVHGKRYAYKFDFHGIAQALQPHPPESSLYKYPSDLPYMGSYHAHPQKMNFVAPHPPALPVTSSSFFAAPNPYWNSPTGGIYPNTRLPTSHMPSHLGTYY
# Protocol: (§1) The interaction coefficients between ERG and synthetic peptides or peptidomimetics were determined by biolayer interferometry technology using the Octet Red system (ForteBio). Purified ERG and GUS proteins were biotinylated by EZLink NHS-PEG4 Biotinylation Kit (Thermo Scientific) following the manufacturer's protocol and any unincorporated biotin was removed from the reactions with Zeba 2 ml desalt columns (Thermo). Biotinylated proteins (500 μg/ml) were then incubated with super streptavidin biosensors in binding buffer (20 mM HEPES pH 7.4, 150 mM NaCl), blocked with 10 μg/ml biocytin and washed three times in binding buffer. Peptides were serially diluted in binding buffer, mixed with the protein-coupled biosensors and peptidomimetic:protein association/dissociation was monitored for 10 min at 25° C. Nonspecific binding from the signal obtained from peptidomimetic:GUS interactions was subtracted from that of peptidomimetic:ERG interactions and baseline signal drift was controlled by monitoring immobilized ERG without peptide. Octet Red analysis software was used to analyze the data.
# [2] = system: VCaP (ERG fusion-positive) xenografts; assay: VCaP xenograft mouse model, tumor growth; conditions: 20 mg/kg dose, p<0.01
# Protocol: Athymic Nude-Foxnlnu male mice were procured from Harlan Laboratories, Inc (Indianapolis, Ind.). All procedures involving mice were approved by the University Committee on Use and Care of Animals (UCUCA) at the University of Michigan and conformed to their relevant regulatory standards. […] Statistical significance for Kaplan-Meier analysis was determined by the log-rank (Mantel-Cox) test.
# Athymic Nude-Foxnlnu male mice were procured from Harlan Laboratories, Inc. (Indianapolis, Ind.). VCaP (2×10^6 cells) or PC3 (5×10^5 cells) were resuspended in 100 μl of saline with 50% Matrigel (BD Biosciences, Becton Drive, NJ) and implanted subcutaneously into the flank regions on both sides of the mice. Mice were anesthetized using a cocktail of xylazine (80-120 mg/kg, IP) and ketamine (10 mg/kg, IP) for chemical restraint before tumor cells implantation. For short term assays, all tumors were staged for three weeks before starting peptidomimetic treatment. After week 3 (VCaP cells) or 12 days (PC3 cells), mice (10 per treatment group) were treated with peptidomimetics (25 mg/kg or 10 mg/kg as indicated, IP) daily five times a week.
# Tumor growth was recorded every three days using digital calipers and tumor volumes were calculated using the formula (π/6) (L×W2), where L=length of tumor and W=width. Body weight was monitored weekly over the course of the study. At the end of the xenograft studies, mice were anaesthetized and blood was collected by cardiac puncture and tumors were preserved for further biochemical and immunofluorescence analysis. […] Survival analysis was carried out using the GraphPad Prism 4.0 software (GraphPad Software, San Diego, Calif.). Statistical significance for Kaplan-Meier analysis was determined by the log-rank (Mantel-Cox) test. All procedures involving mice were approved by the University Committee on Use and Care of Animals (UCUCA) at the University of Michigan and conform to their relevant regulatory standards.
# ERG in VCaP cells [3] = target: T2, ERG in VCaP cells (Homo sapiens, UniProt P11308); assay: Immunoblot of ERG protein in treated VCaP cells; conditions: proteasome inhibitor co-treatment
# Protocol: (§2) VCaP cells were seeded in 6-well plates at 0.5×10^6 cells/ml and after allowing cells to attach, cells were harvested and homogenized in NP40 lysis buffer (Sigma) containing a complete protease inhibitor cocktail (Roche). Ten micrograms of each protein extract was boiled in SDS sample buffer, size fractionated by SDS-PAGE, and transferred onto a PVDF membrane (GE Healthcare). […] Following three washes in TBS-T, the blots were incubated with horseradish peroxidase conjugated secondary antibody and the signals visualized by enhanced chemiluminescence system according to manufacturer's instructions (GE Healthcare).
# ERG [4] = target: T3, ERG (Homo sapiens, UniProt P11308); assay: Kd[μM]
# T3 construct: cDNAs encoding full-length ERG and GUS were cloned into pDEST10 vector; His; made in house; host or cells: SF9 insect cells (Bac-to-Bac baculovirus)
# From the text: Table printed on a drawing sheet, FIG. 13
# Head of the field: Kd[μM]
# Where the first naming reader finds the target: passage: Capping of the EIP1 peptide at both the N- and C-terminus abolished binding to ERG (FIG. 13).
# ERG [5] = target: T3, ERG; assay: Kd[μM]; remark: listed apart in the source
# From the text: Table printed on a drawing sheet, FIG. 14 Head of the field: Kd[μM] […] Where the first naming reader finds the target: passage: the importance of the PYL residues for binding to ERG was identified
# ERG:DNA-PKcs interaction [6] = target: T4, ERG:DNA-PKcs interaction (Homo sapiens, UniProt P11308); assay: In vitro peptide competitive pull-down assay (cell-free); conditions: Halo-ERG with purified DNA-PKcs, increasing peptide concentrations
# T4 sequence (P11308 1-479): T1 sequence (P11308 1-479)
# Protocol: (§3) Halo-ERG fusion protein was expressed using in vitro transcription/translation system as described above. […] Protein mixtures were incubated with or without the peptides in PBS-T (0.1% Tween) at 4° C. overnight. Simultaneously, HaloLink beads (Promega) were blocked in 5% BSA at 4° C. overnight. The next day 10 μl of HaloLink beads were mixed with the protein-peptide mixture, incubated at RT for 1 hour, washed with 4× in PBS-T and eluted into SDS sample buffer. […] HaloLink beads without incubation with fusion proteins were used as negative controls.
# ERG:AR interaction [7] = target: T5, ERG:AR interaction (Homo sapiens, UniProt P11308); assay: as above; conditions: Halo-ERG with recombinant AR, increasing peptide concentrations
# T5 sequence (P11308 1-479): T1 sequence (P11308 1-479)
# Protocol: as §3
# ERG in VCaP cells [8] = target: T2, ERG in VCaP cells
# Protocol: The following primary and secondary antibodies were used: mouse-anti-ERG (Biocare) and goat-anti-mouse-Cy5 (Jackson Immuno-Research) respectively. […] Emission from individual fluorophores was detected sequentially. Image processing was performed in Imaris and colocalization analysis was done in Imaris (Bitplane). Colocalization was calculated as the percentage of FITC spots that colocalized with ERG spots in the nucleus.
# ERG_Y373A = ERG_Y373A (Homo sapiens, UniProt P11308, Y373A); assay: biochemical; type: binding
# ERG_Y373A, sequence (P11308 whole entry Y373A): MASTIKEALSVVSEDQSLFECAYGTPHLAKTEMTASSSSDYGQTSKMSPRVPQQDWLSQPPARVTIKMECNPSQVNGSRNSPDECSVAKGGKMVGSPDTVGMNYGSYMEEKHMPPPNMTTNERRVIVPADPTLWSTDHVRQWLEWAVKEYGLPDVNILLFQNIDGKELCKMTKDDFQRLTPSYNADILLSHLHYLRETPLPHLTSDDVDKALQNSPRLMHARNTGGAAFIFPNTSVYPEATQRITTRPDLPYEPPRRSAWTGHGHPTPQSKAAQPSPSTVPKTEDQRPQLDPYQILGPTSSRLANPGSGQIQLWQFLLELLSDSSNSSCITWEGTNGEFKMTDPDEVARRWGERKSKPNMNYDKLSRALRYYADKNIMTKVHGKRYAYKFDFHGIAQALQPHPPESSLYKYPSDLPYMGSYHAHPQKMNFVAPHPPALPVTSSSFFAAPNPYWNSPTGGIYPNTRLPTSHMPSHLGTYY
# Protocol: as §1
# ERG:EBS DNA interaction = target: T6, ERG:EBS DNA interaction (Homo sapiens, UniProt P11308); type: biochemical
# T6 construct: endogenous in cells; host or cells: VCaP cells (ATCC): cultured cells, lysates or extracts, or VCaP xenograft tumours in nude mice
# Protocol: To determine the inhibitory activity of the peptide against the ERG:DNA interaction, electrophoretic mobility shift assays (EMSAs) were performed. Double stranded ERG ETS binding sequence (5′ […] 3′ (SEQ ID NO:109)) was end labeled using Biotin 3′ End DNA Labeling Kit (Pierce). For each binding reaction, VCaP cell extract was incubated with 1 μg poly d (I-C), 2 μl of EMSA binding buffer (1.5% glycerol, 75 mM KCl, 0.375 mM DTT, 12.5 mM NaCl, 0.375 mM phenylmethylsulfonyl fluoride [PMSF]) and 5 μM biotin-labeled EBS in the presence or absence of the peptides as indicated for 30 min at room temperature. The reaction mixtures were loaded onto 6% TBE gels (Invitrogen) and electrophoresed at 120 V for 2 hr at 4° C. in […] Tris-Borate-EDTA (TBE). Probes were transferred to nylon membrane (Biodyne B, Pall) in a semidry blotting device at 300 mA for 30 min. The membrane was baked for 30 min at 85° C. in a dry oven. Biotinylated oligonucleotides were detected by probing with streptavidin-conjugated horseradish peroxidase and visualized by enhanced chemiluminescence (Pierce).
# [9] = system: cells containing the EWS-FLI1 fusion; assay: DNA damage in Ewing sarcoma cells; type: cell-based
# VCaP cells = assay: Immunofluorescence confocal microscopy of FITC-labeled peptide uptake; type: cell-based; conditions: FITC-labeled peptides
# Protocol: After 2 hours incubation, cells were washed two times in PBS, and fixed for 15 min in 100% methanol. After washing an additional three times in PBS, cells were mounted using Vectashield with DAPI (Vector laboratories). Images were captured using 100× oil objective lens on an Olympus Confocal microscope at the University of Michigan microscopy imaging lab.
# [10] = system: Ewing sarcoma cells containing the EWS-ERG fusion; type: cell-based
# From the text: (A) Pull down of ERG in Ewing sarcoma cells containing a EWS-ERG fusion and reduced tumor growth in xenografts models of Ewing sarcoma. (B) Tumors containing the EWS-FLI1 fusion or osteosarcomas (A204) are not affected by treatments with peptides of the disclosure. […] Similarly, invasion potential was reduced by EIP1 and EIP2 treatment in Ewing sarcoma cells containing the EWS-ERG fusion.
# ERG:AR interaction [11] = target: T5, ERG:AR interaction
# Protocol: as §3
# ERG:DNA-PKcs interaction [12] = target: T4, ERG:DNA-PKcs interaction
# Protocol: as §3
# ERG:DNA-PKcs interaction [13] = target: T7, ERG:DNA-PKcs interaction (Homo sapiens, UniProt P11308); assay: IP-Western blot in VCaP cells
# T7 sequence (P11308 33-479 limits assumed): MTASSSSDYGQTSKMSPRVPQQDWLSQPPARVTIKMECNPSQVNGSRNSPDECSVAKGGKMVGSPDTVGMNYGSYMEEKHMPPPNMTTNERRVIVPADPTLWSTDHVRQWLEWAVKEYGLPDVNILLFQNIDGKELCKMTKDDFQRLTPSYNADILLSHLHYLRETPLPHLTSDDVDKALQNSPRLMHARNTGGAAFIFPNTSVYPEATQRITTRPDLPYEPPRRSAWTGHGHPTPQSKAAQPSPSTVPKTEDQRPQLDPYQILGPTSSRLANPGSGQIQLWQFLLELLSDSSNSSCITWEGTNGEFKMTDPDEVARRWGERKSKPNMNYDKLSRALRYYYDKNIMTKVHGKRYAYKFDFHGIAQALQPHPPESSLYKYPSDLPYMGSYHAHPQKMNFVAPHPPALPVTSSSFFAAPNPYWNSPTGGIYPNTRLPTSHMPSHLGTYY
# Protocol: as §2
# (§4) Cell pellets or tumors treated with or without the peptidomimetics were lysed in cell lysis buffer (20 mM MOPS, pH 7.0, 2 mM EGTA, 5 mM EDTA, 30 mM sodium fluoride, 60 mM β-glycerophosphate, 20 mM sodium pyrophosphate, 1 mM sodium orthovanadate, 1% Triton X-100, 1 mM DTT, protease inhibitor cocktail (Roche)). Cell lysates (0.5-1.0 mg) were pre-cleaned with protein A/G agarose beads (Santa Cruz) by incubation for 1 hour with shaking at 4° C. followed by centrifugation at 2000 rpm for 3 minute. Lysates were then incubated with 2 μg ERG antibody (Santa Cruz, C-17) at 4° C. for 4 hours with shaking prior to addition of 20 μl protein A/G agarose beads and incubated at 4° C. overnight. […] Samples were then analyzed by SDS-PAGE and Western blot analysis as described above.
# RWPE1-ERG cells = assay: Boyden chamber basement membrane matrix invasion assay
# Protocol: (§5) Complete media was added to the lower chamber as a chemoattractant. […] Invasive cells, located on the lower side of the membranes, were stained with crystal violet, air dried and photographed. To quantify the relative number of invaded cells, colorimetric assays were performed by treating the inserts with 150 μl of 10% acetic acid (v/v) and measuring absorbance of each sample in a spectrophotometer at 560 nm (GE Healthcare).
# ERG:AR interaction [14] = target: ERG:AR interaction (Homo sapiens, UniProt P11308); assay: IP-Western blot in VCaP cells
# Protocol: as §2, §4
# PC3-ERG cells = assay: Boyden chamber basement membrane matrix invasion assay
# Protocol: as §5
# [15] = target: T8, TMPRSS2:ERG gene fusion product (endogenous ERG) (Homo sapiens, UniProt P11308); assay: Biotin-peptide pull-down from VCaP cell lysates, immunoblot and mass spectrometry; type: binding; conditions: 53 kDa band of pull-downs, mass spectrometry
# T8 construct: endogenous in cells; host or cells: VCaP cells (ATCC): cultured cells, lysates or extracts, or VCaP xenograft tumours in nude mice
# Protocol: Approximately 1 mg of soluble VCaP cell lysate prepared in RIPA buffer (Invitrogen) was incubated with varying amounts of biotinylated peptides for 2 hours at 4° C. HaloLink agarose beads (20 μl) were added to the peptide-lysate mixture and incubated for an additional 4 hours. Beads were then pelleted by centrifugation, washed three times in PBS-T and loaded into an SDSPAGE gel followed by Western blot analysis. Total VCaP cell lysate was loaded for positive control.
# The samples were treated with SDS loading buffer supplied with 10 mM DTT for 5 min at 85° C. The proteins were alkylated by adding iodoacetamide to the final concentration of 15 mM. The samples were subjected to SDS-PAGE and the whole lanes were cut out and digested with trypsin in-gel for 2 hours. […]
# The resulting spectrum files were transformed into MGF format by MSConvert software and interrogated by MASCOT 2.4 search engine using human UniProt database version 15 concatenated with reverse sequences for estimation of false discovery rate (FDR) and with a list of common contaminants. […] The peptide FDR was calculated as 2×(decoy_hits)/(target+decoy hits). Spectral counts for all detected proteins were assembled using an in-house written Python script. […]
molecule,measurement,setting,value
CC(C)C[C@@H](NC(=O)[C@@H](CO)NC(=O)[C@@H](Cc1ccccc1)NC(=O)CNC(=O)[C@@H](CO)NC(=O)[C@@H](CC(C)C)NC(=O)[C@H]1CCCN1C(=O)CNC(=O)CNC(=O)[C@@H](CCCNC(=N)N)NC(=O)[C@@H](CCCCN)NC(=O)[C@@H](CCCCN)NC(=O)[C@@H](CCCNC(=N)N)NC(=O)[C@@H](CCCNC(=N)N)NC(=O)[C@@H](CCC(N)=O)NC(=O)[C@@H](CCCNC(=N)N)NC(=O)[C@@H](CCCNC(=N)N)NC(=O)[C@@H](CCCNC(=N)N)NC(=O)CN)C(=O)O [RI-EIP2] (H-G[dR][dR][dR][dQ][dR][dR][dK][dK][dR]GG[dP][dL][dS]G[dF][dS][dL]-OH),Kd,ERG [1],1.28 µM
same,tumor growth of VCaP xenografts,[2],significantly delayed tumor growth
CC(C)C[C@H](NC(=O)[C@H](CCc1ccccc1)NC(=O)CN1CCOCC1)C(=O)N[C@@H](Cc1ccccc1)C(=O)N[C@@H](CC(C)C)C(=O)[C@@]1(C)CO1 [carfilzomib],effect on RI-EIP1-induced degradation of ERG protein,ERG in VCaP cells [3],completely inhibited
"Ac-LPPELFT-NH2 [7LT-4E, Ac- LPPELFT -NH2]",Kd,ERG [4],3.6 µM
"Ac-LPPYLF-NH2 [6LF-A, Ac- LPPYLF -NH2]",Kd,ERG [5],> 100 µM
FTFGSLP [FTFGSLP],Kd,ERG [1],3.9 µM
"H-PPYLFT-NH2 [6PT-N, H2N- PPYLFT -NH2]",Kd,ERG [5],11.5 µM
"LPPALFT [muEIP1, LPPALFT]",disruption of direct ERG:DNA-PKcs interaction,ERG:DNA-PKcs interaction [6],not
same,binding to ERG,ERG [1],failed to bind
same,disruption of direct ERG:AR interaction,ERG:AR interaction [7],not
"LPPTFLY [Scr, LPPTFLY, reference compound]",binding to ERG,ERG [1],failed to bind
"LPPYLFT [EIP1, LPPYLFT]",extent of green-red colocalization in the nucleus,ERG in VCaP cells [8],78±5%
same,Kd,ERG_Y373A,> 100 µM
same,disruption of ERG:EBS DNA interaction,ERG:EBS DNA interaction,effectively disrupted
same,DNA damage in cells containing the EWS-FLI1 fusion,[9],no effect
same,Kd,"ERG [1]; OctetRED biolayer interferometry, values in text",0.6 µM
same,entry into VCaP cells,VCaP cells,did not penetrate the cell membrane
same,DNA damage caused by oncogenic ERG (EWS-ERG fusion),[10],reduce DNA damage
same,invasion potential,[10],reduced
same,disruption of direct ERG:AR interaction,ERG:AR interaction [11],disrupted
same,disruption of direct ERG:DNA-PKcs interaction,ERG:DNA-PKcs interaction [12],disrupted
LPPYLFTGGRKKRRQRRRG [TAT-EIP1],block of ERG:DNA-PKcs interaction in VCaP cells,ERG:DNA-PKcs interaction [13],significantly blocked
same,invasion of RWPE1-ERG cells,RWPE1-ERG cells,significantly attenuated
same,block of ERG:AR interaction in VCaP cells,ERG:AR interaction [14],significantly blocked
same,PC3 cell invasion driven by overexpression of ERG,PC3-ERG cells,inhibited
LRFGTLP [LRFGTLP],Kd,ERG [1],7.9 µM
"LSAGSAP [muEIP2, LSAGSAP, reference compound]",binding to ERG,ERG [1],failed to bind
same,spectral counts for the ERG peptide NTGGAAFIFPNTSVYPEATQR,[15],2 spectral counts
"LSFGSLP [EIP2, LSFGSLP]",DNA damage in cells containing the EWS-FLI1 fusion,[9],no effect
same,DNA damage caused by oncogenic ERG (EWS-ERG fusion),[10],reduce DNA damage
same,invasion potential,[10],reduced
same,disruption of direct ERG:AR interaction,ERG:AR interaction [11],disrupted
same,disruption of direct ERG:DNA-PKcs interaction,ERG:DNA-PKcs interaction [12],disrupted
LSFGSLPGGRKKRRQRRRG [TAT-EIP2],block of ERG:DNA-PKcs interaction in VCaP cells,ERG:DNA-PKcs interaction [13],significantly blocked
same,invasion of RWPE1-ERG cells,RWPE1-ERG cells,significantly attenuated
same,block of ERG:AR interaction in VCaP cells,ERG:AR interaction [14],significantly blocked
same,PC3 cell invasion driven by overexpression of ERG,PC3-ERG cells,inhibited
